Experimental data published in paper PMC4536990, “Efficacy of the antimicrobial peptide TP4 against Helicobacter pylori infection: in vitro membrane perturbation via micellization and in vivo suppression of host immune responses in a mouse model” (Oncotarget, 2015).
One block for each compound: values may come before it. Where a SMILES comes first, the peptide text is derived from it.

Columns and labels:
C3H/HeN mice = test: Dermal toxicity; assay type: in vivo; settings: 48 hr post-exposure, after residue removal; 125 mg/kg TP4 or 20% SDS; n=12 per group
Experimental: (§1) Figure 11 TP4 toxicity safety evaluations in New Zealand albino rabbits and C3H/HeN mice (A) Eye irritation test: Ocular appearances of controls, and rabbits treated with TP4 or SDS for 7 days. […] (B) Dermal toxicity: appearances of the skin of mice treated with TP4 at 48 hr post-exposure.
(§2) Oral toxicity: Acute oral toxicity was assessed in C3H/HeN mice with 6 animals per group, by single oral administration of TP4 (125 mg/kg). After dose administration, the animals were kept under observation for a minimum of 48 hr. The mortality rate and clinical signs were recorded. Sub-acute oral toxicity was assessed by administering 600 μg dose/day for 14 days. During dose administration, the animals were observed every day for any signs of toxicity. After the treatment period, the animals were kept under observation for 14 days. The morbidity, mortality, and other clinical signs were recorded and assessed. Dermal Toxicity was assessed by topical application of TP4 at 10 times the effective dose to skin at the dorsal side of mice. After administration, the animals were kept under observation for a minimum of 48 h. Clinical signs were noted if the animals were in the morbid stage or presented with any abnormalities. Eye irritation test in New Zealand white rabbits: Healthy young adult rabbits were used in the experiment. Eyes were treated with TP4, PBS (vehicle control), or 0.1% SDS (positive control). A repeated dose of 1 mg/kg was administered every day for 7 days. During the treatment period, the eyes were examined on days 1, 3, 5, and 7, and allowed to recover until day 14. Clinical signs were recorded during the test period, and grades were assigned for ocular reactions observed during each examination. All procedures, care, and handling of rabbits were approved by the laboratory animal ethics committee of National Taiwan Ocean University.

[1] = system: New Zealand white rabbits; test: Eye irritation test in rabbits (OECD 405); assay type: in vivo; settings: for Abnormality iris grade / Chemosis grade / Conjunctivae Redness grade / Corneal opacity grade: OECD 405 grading
Experimental: as §1, §2

H. pylori 43504 = assay type: cell-based, Helicobacter pylori; settings: 43504, 24 h
Experimental: (§3) H. pylori strains, American type cell cultures (ATCC) 43504, 51653, and 700392, and a clinical isolate CI-HC-028 (provided by Dr. Ming-Shiung Wu, Department of Internal Medicine, Gastrointestinal Hepatobilary Division, National Taiwan University Hospital, Taiwan) were used to determine the antimicrobial efficacy of TP4. Strains were cryopreserved at −80°C in brain heart infusion broth supplemented with 20% FBS. Bacteria were cultured under microaerobic conditions, as previously described. Briefly, bacteria were spread on brain heart infusion (BHI) agar plates supplemented with 10% (v/v) sheep blood, and plates were incubated at 37°C for 24 hr under a microaerobic atmosphere (Anaeropack-Anaero, Mitsubishi, Japan).
(§4) Frozen cultures were streaked onto BHI agar with 10% sheep blood, and incubated for 24 hr under microaerophilic conditions. H. pylori cells undergoing exponential growth were suspended in sterile phosphate-buffered saline (PBS), and adjusted to 0.05 OD using BHI broth; the resulting inoculum was dispensed onto a microtitre plate. Peptide TP4 was prepared at various concentrations (0.04 to 50 μg mL^−1) using PBS. Antibiotic resistant clinical isolate CI-HC-028 and three reference strains were used for susceptibility testing. All plates were incubated under microaerophilic conditions at 37°C overnight. The MIC was defined as the lowest concentration of the drug at which there was no visible growth. For quality control and comparative analyses, we examined the susceptibility of all four H. pylori strains to the antibiotics amoxicillin, clarithromycin, and metronidazole (Sigma Chemical Co., St. Louis, MO).

H. pylori 700392 = assay type: cell-based, Helicobacter pylori; settings: 700392, 24 h
Experimental: as §3, §4

H. pylori CI-HC-028 [2] = assay type: cell-based, Helicobacter pylori; settings: CI-HC-028, 24 h
Experimental: as §3, §4

H. pylori 43629 = assay type: cell-based, Helicobacter pylori; settings: 43629, 24 h
H. pylori CI-HC-028 [3] = test: Time-dependent killing of multidrug resistant clinical isolate; assay type: cell-based, Helicobacter pylori; settings: CI-HC-028, at MIC
Experimental: Control peptide and H. pylori alone were used as controls. The cultures were monitored for 24 h, and aliquots were taken at 1, 3, 6, 12, and 24 h for bacterial enumeration. The data are means ± SEM. […] Approximately, 1 × 10^5 cells were incubated for 1 h, and then incubated with the MIC of TP4, amoxicillin, metronidazole, or clarithromycin (AMOX, METZ, and CLRN, respectively). The cultures were monitored for 24 h, and aliquots taken at 1, 3, 6, 12, and 24 h to determine surviving c.f.u. The data are means ± SEM
Overnight cultures of H. pylori were scraped and adjusted to OD 0.05, and 1 ml/tube inocula were prepared with BHI broth. Solutions of TP4 or clinical antibiotics were prepared with concentrations corresponding to their respective MIC, and PBS was used as a control. The tubes were incubated without shaking at 37°C under microaerophilic conditions, and sample aliquots were taken at 0, 1, 3, 6, 12, and 24 hr. The samples were serially diluted, and appropriate dilutions were plated in triplicate onto blood agar plates for bacterial counts. The results were expressed as mean log (c.f.u. mL^−1) with standard error.

H. pylori = test: Induction of drug resistance by sub-inhibitory passaging (in vitro / in vivo passage); assay type: cell-based, Helicobacter pylori; settings: sub-inhibitory doses, 10 serial passages
Experimental: (§5) Animals were sacrificed at each passage, and the MIC of TP4, amoxicillin, metronidazole, and clarithromycin were recorded for 10 serial passages. Passage points in the curves are means ± SEM. (MICs: standard MIC value; MICp: passage-induced MIC). (B) In vitro dose-OD fall kinetics were examined for TP4 alone and in combination with amoxicillin, metronidazole, or clarithromycin. […] The data shown are means ± SEM of two independent experiments
The drug resistance of bacteria to TP4 and clinical antibiotics was determined by in vitro culturing of H. pylori in sub-inhibitory concentrations of TP4 and antibiotics, followed by repeated in vivo passaging. H. pylori was administered to C3H/HeN mice and allowed to colonize the gut; subsequently pure colonies of H. pylori were isolated on EYE selective media. This step was repeated for 10 passages. During each passage, the MICs of TP4 and the conventional antibiotics were determined. All procedures, care, and handling of mice were approved by the laboratory animal ethics committee of National Taiwan Ocean University.

[4] = system: metronidazole- and clarithromycin-resistant H. pylori strains; test: Synergy of TP4 with antibiotics, in vitro dose-OD fall kinetics; assay type: cell-based, Helicobacter pylori; settings: TP4 plus antibiotic
Experimental: as §5
Combination therapy often enhances antibiotic efficacy and mitigates the frequency at which drug resistance emerges. To determine the suitability of TP4 for combination therapy, we examined in vitro dose-OD fall kinetics of TP4 in combination with AMOX, CLRN, or METZ antibiotics; these three antibiotics are traditionally used as the first line of defense against H. pylori.

SMILES: CCCCCCCCCCCCOS(=O)(=O)[O-].[Na+] [SDS, reference compound]
skin appearance, lesions (C3H/HeN mice): No obvious lesions | Abnormality iris grade ([1]; Day 1): 0 | Chemosis grade ([1]; Day 1): 1.5 | Conjunctivae Redness grade ([1]; Day 1): 1 | Corneal opacity grade ([1]; Day 1, rabbit eye, daily for 7 days (TP4 1 mg/kg; SDS 0.1%)): 1 | Abnormality iris grade ([1]; Day 3): 0 | Chemosis grade ([1]; Day 3): 1.5 | Conjunctivae Redness grade ([1]; Day 3): 1 | Corneal opacity grade ([1]; Day 3): 1 | Abnormality iris grade ([1]; Day 5): 0 | Chemosis grade ([1]; Day 5): 2 | Conjunctivae Redness grade ([1]; Day 5): 1 | Corneal opacity grade ([1]; Day 5): 1 | Abnormality iris grade ([1]; Day 7): 0 | Chemosis grade ([1]; Day 7): 2 | Conjunctivae Redness grade ([1]; Day 7): 1 | Corneal opacity grade ([1]; Day 7): 1 | Abnormality iris grade ([1]; Recovery, Day 14): 0 | Chemosis grade ([1]; Recovery, Day 14): 1.5 | Conjunctivae Redness grade ([1]; Recovery, Day 14): 0.5 | Corneal opacity grade ([1]; Recovery, Day 14): 0.5 | ocular appearance ([1]; rabbits treated for 7 days, observed daily): severe lacrimation, swelling of the eyelids, and elevated blood vessels in conjunctivae

SMILES: CC[C@H]1OC(=O)[C@H](C)[C@@H](O[C@H]2C[C@@](C)(OC)[C@@H](O)[C@H](C)O2)[C@H](C)[C@@H](O[C@@H]2O[C@H](C)C[C@H](N(C)C)[C@H]2O)[C@](C)(OC)C[C@@H](C)C(=O)[C@H](C)[C@@H](O)[C@]1(C)O [clarithromycin]
time taken to 90% reduction of c.f.u. (H. pylori CI-HC-028 [3]): > 24 h | drug resistance index MICp/MICs (H. pylori): gradually increased from passage 3 to the last passage | reduction of the MIC of the antibiotic in combination with TP4 [4]: one-half

SMILES: Cc1ncc([N+](=O)[O-])n1CCO [metronidazole]
course of cell count in time kill (H. pylori CI-HC-028 [3]; 24 h): initial decrease in cell count, but gradually lost activity | drug resistance index MICp/MICs (H. pylori): gradually increased from passage 3 to the last passage | reduction of the MIC of the antibiotic in combination with TP4 [4]: one-half

The next lines start with the values.

MIC (H. pylori 43504): > 12 µg/mL | MIC (H. pylori 700392): > 12 µg/mL | MIC (H. pylori CI-HC-028 [2]): > 12 µg/mL | MIC (H. pylori 43629): > 12 µg/mL
SMILES: CC(C)C[C@H](NC(=O)[C@@H](NC(=O)[C@H](CO)NC(=O)[C@H](CC(=O)O)NC(=O)[C@H](Cc1c[nH]c2ccccc12)NC(=O)[C@H](CC(=O)O)NC(=O)[C@@H](N)Cc1ccccc1)C(C)C)C(=O)N[C@@H](CCCCN)C(=O)NCC(=O)N[C@H](C(=O)N[C@@H](CCC(=O)O)C(=O)NCC(=O)N[C@@H](Cc1ccccc1)C(=O)N[C@H](C(=O)N[C@@H](CCCNC(=N)N)C(=O)NCC(=O)N[C@@H](Cc1ccc(O)cc1)C(=O)N[C@@H](Cc1ccccc1)C(N)=O)C(C)C)C(C)C [TP1] (H-FDWDSVLKGVEGFVRGYF-NH2)

MIC (H. pylori 43504): 8 to 12 µg/mL | MIC (H. pylori 700392): 8 to 12 µg/mL | MIC (H. pylori CI-HC-028 [2]): 8 to 12 µg/mL | MIC (H. pylori 43629): 8 to 12 µg/mL
SMILES: CC[C@H](C)[C@H](NC(=O)[C@H](CC(C)C)NC(=O)[C@H](CO)NC(=O)[C@H](Cc1c[nH]cn1)NC(=O)[C@@H](NC(=O)[C@H](Cc1c[nH]cn1)NC(=O)[C@H](CCCCN)NC(=O)CNC(=O)[C@@H](NC(=O)[C@H](CO)NC(=O)[C@H](Cc1ccccc1)NC(=O)[C@H](CC(C)C)NC(=O)CNC(=O)CNC(=O)[C@@H](NC(=O)[C@@H](NC(=O)[C@H](Cc1c[nH]cn1)NC(=O)[C@H](Cc1c[nH]cn1)NC(=O)[C@@H](NC(=O)[C@@H](N)Cc1ccccc1)[C@@H](C)CC)[C@@H](C)CC)[C@@H](C)CC)C(C)C)[C@@H](C)CC)C(=O)N[C@@H](Cc1c[nH]cn1)C(=O)NCC(=O)N[C@@H](Cc1c[nH]cn1)C(N)=O [TP3] (H-FIHHIIGGLFSVGKHIHSLIHGH-NH2)

MIC (H. pylori 43504): >12 µg/mL | MIC (H. pylori 700392): >12 µg/mL | MIC (H. pylori CI-HC-028 [2]): >12 µg/mL | MIC (H. pylori 43629): >12 µg/mL
SMILES: CC[C@H](C)[C@H](NC(=O)[C@H](CC(C)C)NC(=O)[C@H](CCC(=O)O)NC(=O)[C@H](CCC(N)=O)NC(=O)[C@H](CC(C)C)NC(=O)[C@@H](NC(=O)[C@H](CCCCN)NC(=O)[C@H](CCC(N)=O)NC(=O)[C@@H](NC(=O)[C@@H](NC(=O)[C@H](CCC(=O)O)NC(=O)CNC(=O)[C@H](CO)NC(=O)[C@@H](NC(=O)[C@H](CCC(N)=O)NC(=O)[C@H](CCCCN)NC(=O)CNC(=O)[C@H](CCC(N)=O)NC(=O)[C@H](CC(C)C)NC(=O)[C@@H](N)CCC(N)=O)C(C)C)C(C)C)C(C)C)C(C)C)C(=O)N[C@@H](CCC(N)=O)C(=O)N[C@@H](CO)C(=O)N[C@H](C(=O)N[C@@H](C)C(=O)N[C@@H](CCCCN)C(=O)N1CCC[C@H]1C(N)=O)C(C)C [TP5] (H-QLQGKQVSGEVVQKVLQELIQSVAKP-NH2)
